The nature of series [1]: Tissue distribution and pharmacokinetics following IP administration to normal rats. The format is in vivo, SD rats. The settings on record: 10 mg/kg IP. The source says:
At pre-selected time points following dosing, the rats were anesthetized using iso-fluorane and the peritoneal cavity was then opened and a blood sample was obtained from the abdominal vena cava. In addition, liver, kidney, and heart were excised and immersed in 3 volumes of cold 60% acetonitrile. The blood samples were briefly centrifuged and the plasma fraction was then extracted with 1.5 volumes of methanol, processed, and analyzed by LC-UV as described in Example G. The frozen liver, kidney, and heart tissue were homogenized in 60% v/v acetonitrile, centrifuged, and then analyzed by LC-UV. Pharmacokinetic parameters and AUC of the plasma and tissue concentration-time profiles were determined noncompartmentally by WinNonLin.

Series [2] addresses T1, human thyroid hormone receptors TRα1 (Homo sapiens, UniProt P10827).
T1 construct: made in house; host or cells: Sf9 insect cells (baculovirus)
T1 sequence (P10827 1-410 isoform P10827-2): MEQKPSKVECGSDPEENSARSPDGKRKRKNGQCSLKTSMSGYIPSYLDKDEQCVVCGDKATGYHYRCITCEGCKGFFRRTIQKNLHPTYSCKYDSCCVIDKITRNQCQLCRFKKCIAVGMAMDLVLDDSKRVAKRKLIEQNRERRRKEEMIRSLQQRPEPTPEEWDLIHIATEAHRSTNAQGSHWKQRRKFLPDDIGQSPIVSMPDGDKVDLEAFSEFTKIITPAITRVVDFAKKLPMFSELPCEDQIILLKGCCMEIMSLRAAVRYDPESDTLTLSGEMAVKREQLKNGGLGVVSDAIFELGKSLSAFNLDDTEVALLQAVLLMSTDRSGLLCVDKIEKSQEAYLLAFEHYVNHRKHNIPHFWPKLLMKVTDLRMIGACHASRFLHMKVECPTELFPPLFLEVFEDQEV
T1 sequence (P19793 1-462 partner): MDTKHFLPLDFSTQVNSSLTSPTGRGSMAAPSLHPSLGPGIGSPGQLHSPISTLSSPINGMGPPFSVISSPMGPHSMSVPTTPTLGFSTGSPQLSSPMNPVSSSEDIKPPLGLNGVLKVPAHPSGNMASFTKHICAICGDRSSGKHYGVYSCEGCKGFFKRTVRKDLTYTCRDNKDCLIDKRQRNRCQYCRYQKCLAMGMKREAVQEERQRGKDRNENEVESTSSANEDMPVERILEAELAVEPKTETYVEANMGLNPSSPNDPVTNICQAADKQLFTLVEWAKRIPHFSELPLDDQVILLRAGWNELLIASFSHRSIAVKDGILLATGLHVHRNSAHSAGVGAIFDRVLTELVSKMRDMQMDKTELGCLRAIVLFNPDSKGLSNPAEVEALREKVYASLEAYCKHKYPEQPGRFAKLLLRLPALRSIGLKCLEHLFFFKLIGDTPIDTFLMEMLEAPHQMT
Kind of series: Receptor binding to TRα1 (gel filtration and scintillation proximity assay, labeled T3). The settings on record: SPA data; read-out: Ki TRα. A general note: SEC sorts molecules by how far they enter the pores of the column.

The subject of series [3] is liver mitochondrial glycerol phosphate dehydrogenase (mGPDH) activity. Kind of series: Subacute study in normal rats, continuous infusion: liver mGPDH activity. The settings on record: continuous infusion 1 mg/kg/day. The format is in vivo, rats (Sprague-Dawley). The source says: Efficacy endpoints include serum cholesterol, liver mitochondrial glycerol phosphate dehydrogenase (mGPDH) activity and the expression of relevant liver genes (e.g., the LDL-receptor, apoB, cpt-1, spot14 and apoAI). Safety parameters include heart weight, heart rate, heart mGPDH activity, the expression and key genes involved in cardiac structure and function (e.g., Serca2, HCN2, Kv1.5, MHCα, MHCβ, Alpha1c), and standard plasma chemistry analysis (liver enzymes, electrolytes, creatinine). Endocrine effects are monitored by analysis of serum thyroid stimulating hormone (TSH). [Taylor et al., Mol Pharmacol 52(3): 542-7 (1997); Weitzel et al., Eur J Biochem 268(14):4095-4103 (2001)]
Methods: mGPDH activity was analyzed in isolated mitochondria using 2-(4-iodophenyl)-3-(4-nitrophenyl)-5-phenyl tetrazolium chloride as the terminal electron acceptor (Gardner R S, Analytical Biochemistry 59:272 (1974)). Commercially available GPDH was used in each assay as a standard (Sigma, St. Louis, Mo.). Changes in levels of mRNA for liver and heart genes are analyzed using reverse transcriptase followed by real-time PCR analysis. The analysis is performed using an iCycler instrument (Biorad) and appropriate primers by means of standard methodology [e.g., Schwab D A et al. (2000) Life Sciences 66: 1683-94]. The amounts of mRNA are normalized to an internal control, typically, cyclophilin. Serum TSH is measured using an enzyme immunoassay (EIA) kit designed for rat TSH (Amersham Pharmacia Biotech, Arlington Heights, Ill.).
Normal rats (Sprague-Dawley) were maintained on a standard diet. […] The compounds were brought up to an appropriate volume using PBS and BSA to maintain solubility within the pump. The compounds were chemically stable in the excipient at 37° C. for 7 days.
Values are expressed as percent of control. (Table 4)

Series [4] relates to liver triglycerides. Kind of series: Hepatic triglyceride content and steatosis in ZDF rats, oral. The settings on record: orally 28 days. The format is in vivo. On the procedure:
Normal rats were chronically infused with Compound 7 for 7 days. Liver triglycerides were analyzed following lipid extraction by the Bligh Dyer method (Bligh E G and Dyer W J, A rapid method of total lipid extraction and purification. Can J Med. Sci. 1959 (August); 37(8):911-7, incorporated herein by reference). Total triglycerides were analyzed in the liver extracts by an enzymatic assay (Thermo Electron Corporation). Total lipid was normalized to initial liver weight and triglyceride content was normalized to liver weight. […] There was a 4% reduction in liver triglycerides for this group and the results were not statistically significant.
In other experiments, Compound 7 was orally administered to ZDF rats for 28 days. Liver triglycerides were analyzed as described above. Total liver triglycerides were reduced in the treated animals 42% in the 2.5 mg/kg/d group. […] The hepatic steatosis is a well known and described phenomenon for the ZDF rat, and therefore not attributable to vehicle treatment.

The AUC is concentration integrated over time. High values mean more exposure, low ones less exposure. Broadly, the Cmax is the maximum level reached in the sampled fluid or tissue. The Tmax is the time at which the peak concentration occurs. One may read the Ki as a dissociation constant, usually derived from enzyme kinetics or from competition with a known ligand. As to `Cc1cc(OCP(=O)(O)O)cc(C)c1Cc1ccc(O)c(C(C)C)c1` [Compound 7, [3,5-dimethyl-4-(4′-hydroxy-3′-iso-propylbenzyl)phenoxy]methylphosphonic acid], in series [1], the “Heart AUC” value was 32.8 nmol·h/g, the “Kidney AUC” value turned out to be 5.0 nmol·h/g and the “Liver AUC” value turned out to be 301.7 nmol·h/g. For the same compound, in series [1] (male, SD, rat, plasma), the AUC amounted to 31600 ng·h/mL, the peak level (Cmax) was 26000 ng/mL and the Tmax amounted to 20 min. Moreover, in series [1] (male, SD, rat, plasma, read-out: Cl(observed)/F (converted)), the CL/F was 5.01 mL/min/kg. The Vd/F in series [1] (male, SD, rat, plasma, read-out: Vz(observed)/F) is 0.401 L/kg. Further, in series [1] (plasma), the AUMClast was 33.7098 μg * hr^2/mL and the Tlast amounted to 4 h. Besides, the Ki in series [2] was 0.058 µM. Also, in series [3], the “Liver GPDH” value is 399% of control. In series [4], the “microvesicular steatosis, histologic analysis of liver sections” value is given as “dose dependent reduction in the microvesicular steatosis”.

Source of the values: patent publication US20090028925A1, “Novel Phosphinic Acid-Containing Thyromimetics” (priority 2005, published 2009).
